As a reminder, the IC50 is the concentration at which inhibition is half-maximal. Lower therefore signals greater potency in that assay.

Sequence of CDK12 complexed with Cyclin K (Q9NYV4 whole entry): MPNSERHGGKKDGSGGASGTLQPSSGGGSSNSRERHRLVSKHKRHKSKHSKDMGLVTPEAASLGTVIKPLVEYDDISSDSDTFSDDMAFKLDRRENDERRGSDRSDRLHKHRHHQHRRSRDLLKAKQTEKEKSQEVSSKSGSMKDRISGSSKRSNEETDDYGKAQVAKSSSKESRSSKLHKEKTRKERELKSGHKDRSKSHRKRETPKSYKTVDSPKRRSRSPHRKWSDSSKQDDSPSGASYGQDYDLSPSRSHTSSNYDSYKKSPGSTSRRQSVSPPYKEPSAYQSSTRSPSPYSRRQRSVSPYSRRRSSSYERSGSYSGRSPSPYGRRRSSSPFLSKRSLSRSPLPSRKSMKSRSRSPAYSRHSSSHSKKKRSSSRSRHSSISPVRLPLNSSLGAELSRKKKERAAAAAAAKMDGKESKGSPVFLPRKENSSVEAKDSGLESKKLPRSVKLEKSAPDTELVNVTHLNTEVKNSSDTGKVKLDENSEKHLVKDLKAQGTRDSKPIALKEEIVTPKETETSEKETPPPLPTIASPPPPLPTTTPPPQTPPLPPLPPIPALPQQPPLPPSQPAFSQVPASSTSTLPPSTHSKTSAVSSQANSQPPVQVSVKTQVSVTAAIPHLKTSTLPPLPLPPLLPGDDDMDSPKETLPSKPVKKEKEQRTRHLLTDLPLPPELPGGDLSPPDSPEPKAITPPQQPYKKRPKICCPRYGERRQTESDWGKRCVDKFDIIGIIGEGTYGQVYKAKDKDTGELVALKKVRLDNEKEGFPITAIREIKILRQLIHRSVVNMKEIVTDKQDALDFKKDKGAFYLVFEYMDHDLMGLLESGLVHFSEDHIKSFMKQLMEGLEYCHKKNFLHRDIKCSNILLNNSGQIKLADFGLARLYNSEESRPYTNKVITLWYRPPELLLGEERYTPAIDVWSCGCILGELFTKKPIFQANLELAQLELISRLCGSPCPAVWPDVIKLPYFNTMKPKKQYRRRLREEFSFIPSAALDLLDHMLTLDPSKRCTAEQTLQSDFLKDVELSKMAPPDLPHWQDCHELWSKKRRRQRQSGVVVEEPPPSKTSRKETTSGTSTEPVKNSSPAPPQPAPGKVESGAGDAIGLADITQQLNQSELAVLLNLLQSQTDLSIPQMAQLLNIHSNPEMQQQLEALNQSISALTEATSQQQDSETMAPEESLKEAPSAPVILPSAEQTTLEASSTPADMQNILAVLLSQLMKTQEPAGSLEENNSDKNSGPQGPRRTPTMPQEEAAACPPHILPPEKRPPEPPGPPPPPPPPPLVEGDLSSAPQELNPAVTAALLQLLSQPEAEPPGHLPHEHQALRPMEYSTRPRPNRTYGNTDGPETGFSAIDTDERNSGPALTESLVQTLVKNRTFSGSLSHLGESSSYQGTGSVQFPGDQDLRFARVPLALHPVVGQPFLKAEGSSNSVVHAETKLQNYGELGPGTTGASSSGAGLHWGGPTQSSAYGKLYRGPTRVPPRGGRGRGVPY
Sequence of CDK12 complexed with Cyclin K (O75909 whole entry partner): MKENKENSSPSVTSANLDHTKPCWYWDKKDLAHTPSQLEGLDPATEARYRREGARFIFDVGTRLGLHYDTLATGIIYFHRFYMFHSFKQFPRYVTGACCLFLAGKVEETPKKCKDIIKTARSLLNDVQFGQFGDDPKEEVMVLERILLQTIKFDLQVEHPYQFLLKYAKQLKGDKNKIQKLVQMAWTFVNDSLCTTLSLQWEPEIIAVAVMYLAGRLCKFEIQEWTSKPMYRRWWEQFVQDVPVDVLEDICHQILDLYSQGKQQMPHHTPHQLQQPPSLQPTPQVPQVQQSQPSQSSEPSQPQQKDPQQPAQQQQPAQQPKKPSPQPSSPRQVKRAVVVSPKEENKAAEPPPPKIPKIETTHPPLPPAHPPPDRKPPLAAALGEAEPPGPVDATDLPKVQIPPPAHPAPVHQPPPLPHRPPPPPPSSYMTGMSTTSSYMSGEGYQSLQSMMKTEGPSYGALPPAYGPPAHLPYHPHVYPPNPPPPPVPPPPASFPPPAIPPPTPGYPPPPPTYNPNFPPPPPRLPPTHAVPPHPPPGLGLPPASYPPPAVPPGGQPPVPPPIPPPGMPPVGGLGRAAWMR

The assay addresses CDK12 complexed with Cyclin K (Homo sapiens (Human), UniProt Q9NYV4). Nature of the assay: CDK enzymatic assay (HTRF, LANCE Ultra kinase assay). Format: biochemical. As to conditions: 60 minutes pre-incubation, 1 mM ATP. Put shortly: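 GST-tagged human CDK12 co-expressed with full-length Cyclin K in baculovirus, pre-incubated 60 min with compound, then 1 mM ATP and 50 nM ULight-4E-BP1 peptide (final) in pH 7.5 HEPES buffer for 60-90 min at room temperature. EDTA/Eu-anti-phospho-4E-BP1 stop; 665/620 nm HTRF ratio normalized to DMSO and no-enzyme controls, IC50 from 3- or 4-parameter fit.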
In general terms: In TR-FRET formats the signal depends on donor and acceptor labels being close together.
In turn, `CC(=O)N1CCN(c2cnc3c(c2)ncn3[C@H]2CCC[C@@H](Nc3ncc(C#N)c(-c4cnn(CC(F)F)c4)n3)C2)CC1` [Example 74, 2-(((1R,3S)-3-(6-(4-Acetylpiperazin-1-yl)-3H-imidazo[4,5-b]pyridin-3-yl)cyclohexyl)amino)-4-(1-(2,2-difluoroethyl)-1H-pyrazol-4-yl)pyrimidine-5-carbonitrile] yielded an IC50 of less than 50 nM.
The same measure for `CN1CCN(c2cnc3c(c2)ncn3[C@H]2CCC[C@@H](Nc3ncc(C#N)c(-c4cnn(CC(F)F)c4)n3)C2)CC1` [Example 75, 4-(1-(2,2-Difluoroethyl)-1H-pyrazol-4-yl)-2-(((1R,3S)-3-(6-(4-methylpiperazin-1-yl)-3H-imidazo[4,5-b]pyridin-3-yl)cyclohexyl)amino)pyrimidine-5-carbonitrile]: less than 50 nM; for `N#Cc1cnc(N[C@@H]2CCC[C@H](n3cnc4cc(N5CCOCC5)cnc43)C2)nc1-c1cnn(CC(F)F)c1` [Example 76, 4-(1-(2,2-Difluoroethyl)-1H-pyrazol-4-yl)-2-(((1R,3S)-3-(6-morpholino-3H-imidazo[4,5-b]pyridin-3-yl)cyclohexyl)amino)pyrimidine-5-carbonitrile]: less than 50 nM; for `Cc1ccncc1-c1cnc2c(c1)ncn2[C@H]1CCC[C@@H](Nc2ncc(C#N)c(-c3cnn(CC(F)F)c3)n2)C1` [Example 77, 4-(1-(2,2-Difluoroethyl)-1H-pyrazol-4-yl)-2-(((1R,3S)-3-(6-(4-methylpyridin-3-yl)-3H-imidazo [4,5-b]pyridin-3-yl)cyclohexyl)amino)pyrimidine-5-carbonitrile]: 50 to 500 nM.
Regarding `C=C(C)c1cnc2c(c1)ncn2[C@H]1CCC[C@@H](Nc2ncc(C(F)(F)F)c(-c3cnn(CC(F)F)c3)n2)C1` [Example 78, 4-(1-(2,2-Difluoroethyl)-1H-pyrazol-4-yl)-N-((1R,3S)-3-(6-(prop-1-en-2-yl)-3H-imidazo[4,5-b]pyridin-3-yl)cyclohexyl)-5-(trifluoromethyl)pyrimidin-2-amine], the IC50 was less than 50 nM.
For the compound `FC(F)Cn1cc(-c2nc(N[C@@H]3CCC[C@H](n4cnc5cc(C6CC6)cnc54)C3)ncc2C(F)(F)F)cn1` [Example 79, N-((1R,3S)-3-(6-Cyclopropyl-3H-imidazo[4,5-b]pyridin-3-yl)cyclohexyl)-4-(1-(2,2-difluoroethyl)-1H-pyrazol-4-yl)-5-(trifluoromethyl)pyrimidin-2-amine], the half-maximal inhibitory concentration (IC50) is less than 50 nM.
For the compound `FC(F)Cn1cc(-c2nc(N[C@@H]3CCC[C@H](n4cnc5cc(-c6cn[nH]c6)cnc54)C3)ncc2C(F)(F)F)cn1` [Example 80, N-((1R,3S)-3-(6-(1H-Pyrazol-4-yl)-3H-imidazo[4,5-b]pyridin-3-yl)cyclohexyl)-4-(1-(2,2-difluoroethyl)-1H-pyrazol-4-yl)-5-(trifluoromethyl)pyrimidin-2-amine], the 50% inhibitory concentration (IC50) is less than 50 nM.
As to `Cn1cc(-c2cnc3c(c2)ncn3[C@H]2CCC[C@@H](Nc3ncc(C(F)(F)F)c(-c4cnn(CC(F)F)c4)n3)C2)cn1` [Example 81, 4-(1-(2,2-Difluoroethyl)-1H-pyrazol-4-yl)-N-((1R,3S)-3-(6-(1-methyl-1H-pyrazol-4-yl)-3H-imidazo[4,5-b]pyridin-3-yl)cyclohexyl)-5-(trifluoromethyl)pyrimidin-2-amine], the IC50 was less than 50 nM.
The compound `FC(F)Cn1cc(-c2nc(N[C@@H]3CCC[C@H](n4cnc5cc(-c6cccnc6)cnc54)C3)ncc2C(F)(F)F)cn1` [Example 82, 4-(1-(2,2-Difluoroethyl)-1H-pyrazol-4-yl)-N-((1R,3S)-3-(6-(pyridin-3-yl)-3H-imidazo[4,5-b]pyridin-3-yl)cyclohexyl)-5-(trifluoromethyl)pyrimidin-2-amine] yielded an IC50 of less than 50 nM.
`FC(F)Cn1cc(-c2nc(N[C@@H]3CCC[C@H](n4cnc5cc(N6CCCC6)cnc54)C3)ncc2C(F)(F)F)cn1` [Example 83, 4-(1-(2,2-Difluoroethyl)-1H-pyrazol-4-yl)-N-((1R,3S)-3-(6-(pyrrolidin-1-yl)-3H-imidazo[4,5-b]pyridin-3-yl)cyclohexyl)-5-(trifluoromethyl)pyrimidin-2-amine]: the IC50 was less than 50 nM.
Consider `CN(C)c1cnc2c(c1)ncn2[C@H]1CCC[C@@H](Nc2ncc(C(F)(F)F)c(-c3cnn(CC(F)F)c3)n2)C1` [Example 84, 3-((1S,3R)-3-((4-(1-(2,2-Difluoroethyl)-1H-pyrazol-4-yl)-5-(trifluoromethyl)pyrimidin-2-yl)amino)cyclohexyl)-N,N-dimethyl-3H-imidazo[4,5-b]pyridin-6-amine], for which the half-maximal inhibitory concentration (IC50) was less than 50 nM.
`Cc1nccc2c1ncn2[C@H]1CCC[C@@H](Nc2ncc(C#N)c(-c3cnn(CC(F)F)c3)n2)C1` [Example 85, 4-(1-(2,2-Difluoroethyl)-1H-pyrazol-4-yl)-2-(((1R,3S)-3-(4-methyl-1H-imidazo[4,5-c]pyridin-1-yl)cyclohexyl)amino)pyrimidine-5-carbonitrile] yielded an IC50 of less than 50 nM.
On to `N#Cc1ccc2c(c1)ncn2[C@H]1CCC[C@@H](Nc2ncc(C#N)c(-c3cnn(CC(F)F)c3)n2)C1` [Example 86, 1-((1S,3R)-3-((5-Cyano-4-(1-(2,2-difluoroethyl)-1H-pyrazol-4-yl)pyrimidin-2-yl)amino)cyclohexyl)-1H-benzo[d]imidazole-5-carbonitrile], for which the IC50 was less than 50 nM.
Regarding `N#Cc1cccc2ncn([C@H]3CCC[C@@H](Nc4ncc(C(F)(F)F)c(-c5cnn(CC(F)F)c5)n4)C3)c12` [Example 87, 1-((1S,3R)-3-((4-(1-(2,2-Difluoroethyl)-1H-pyrazol-4-yl)-5-(trifluoromethyl)pyrimidin-2-yl)amino)cyclohexyl)-1H-benzo[d]imidazole-7-carbonitrile], the IC50 was less than 50 nM.
With `N#Cc1cc2ncn([C@H]3CCC[C@@H](Nc4ncc(C#N)c(-c5cnn(CC(F)F)c5)n4)C3)c2cn1` [Example 88, 3-((1S,3R)-3-((5-Cyano-4-(1-(2,2-difluoroethyl)-1H-pyrazol-4-yl)pyrimidin-2-yl)amino)cyclohexyl)-3H-imidazo[4,5-c]pyridine-6-carbonitrile], the 50% inhibitory concentration (IC50) is less than 50 nM.
The compound `Cc1c(-c2nc(N[C@@H]3CCC[C@H](n4cnc5cc(C#N)cnc54)C3)ncc2C#N)cnn1C` [Example 89, 3-((1S,3R)-3-((5-Cyano-4-(1,5-dimethyl-1H-pyrazol-4-yl)pyrimidin-2-yl)amino)cyclohexyl)-3H-imidazo[4,5-b]pyridine-6-carbonitrile] gave an IC50 of less than 50 nM.

(Values after patent US20250353842A1, “BICYCLIC AMINE CDK12 INHIBITORS” (Incyte Corporation, priority 2022, published 2025).)
